Assay results from patent publication US20240207254A1, “METHODS FOR TITRATING MITAPIVAT” (Agios Pharmaceuticals, Inc., priority 2021, published 2024).

Assay: phase 2 study: sudden withdrawal or missed doses of mitapivat, acute hemolysis
Type: in vivo, human
Protocol: Clinical studies have also shown that acute hemolysis with subsequent anemia can occur following abrupt interruption or discontinuation of mitapivat. […] For example, in a phase 2 study with 300 mg of mitapivat dosed twice daily, 3.8% of subjects experienced hemolysis upon sudden withdrawal of mitapivat, including 1 serious adverse event of acute hemolysis. […] Although the exact risk factors which make someone susceptible to acute hemolysis cannot be determined, it appears that the rapid loss of hemoglobin is an issue for these cases. Given the uncertainty as to who is likely to experience signs or symptoms of acute hemolysis (or subsequent anemia), it is important to develop means for mitigating such events.

O=C(c1ccc(NS(=O)(=O)c2cccc3cccnc23)cc1)N1CCN(CC2CC2)CC1 [mitapivat, N-(4-(4-(cyclopropylmethyl)piperazine-1-carbonyl)phenyl)quinoline-8-sulfonamide]
events indicative of acute hemolysis after missed doses (patients who missed only a few doses later in their treatment course): did not experience events indicative of acute hemolysis | subjects who experienced hemolysis upon sudden withdrawal of mitapivat (phase 2 study, 300 mg mitapivat dosed twice daily, sudden withdrawal): 3.8% | serious adverse event of acute hemolysis (number of events) (phase 2 study, 300 mg twice daily, sudden withdrawal, included in the 3.8%): 1
